Laboratory results published in paper PMC9463526 (Journal of Pharmaceutical Analysis, 2022).
Where two headings read alike, the source gives them in different places.

Experiments:
[1] = Analyte stability in brain homogenate; format: physicochemical, human; conditions: for Freeze-thaw stability, Accuracy / Freeze-thaw stability, Mean concentration / Freeze-thaw stability, Difference: 3 cycles; for Freeze-thaw stability, Difference / Benchtop stability, Difference / Processed sample stability, Difference / Autosampler stability (5 °C), Difference / Long-term stability (−20 °C), Difference: vs freshly processed QC; for Benchtop stability, Accuracy / Benchtop stability, Mean concentration / Benchtop stability, Difference: 6 h; for Processed sample stability, Accuracy / Processed sample stability, Mean concentration / Processed sample stability, Difference: 22 h; for Autosampler stability (5 °C), Accuracy / Autosampler stability (5 °C), Mean concentration / Autosampler stability (5 °C), Difference: 96 h; for Long-term stability (−20 °C), Accuracy / Long-term stability (−20 °C), Mean concentration / Long-term stability (−20 °C), Difference: 39 days
Protocol: (§1) The stability of the analytes was studied under various storage and processing conditions. […] Short- and long-term stability studies of all analytes were conducted in human blank plasma and brain homogenate under several storage conditions. Analyte stability in biological matrices was analyzed using freshly prepared calibration standards and QC samples. The percentage difference between the stability and freshly processed QC was also assessed. Re-injection reproducibility was evaluated within the sample stability period in the autosampler. Analytes were considered stable if the accuracy at each level was ±15.0% of the nominal value. Additionally, the difference from corresponding comparison QC samples must be within ±15.0%.

[2] = Levels in intraoperatively collected CSF of GBM patients; format: in vivo; conditions: human, po, five GBM patients, oral LY3214996 200 mg once daily and abemaciclib 150 mg twice daily for 5 days, intraoperative CSF
Protocol: Blank brain and clinical brain tumor tissue homogenates were prepared at 1:9 (m/V) ratio with PBS. The samples were homogenized at a speed of 6.00 m/s for 40 s for three cycles using a Bead Ruptor Elite homogenizer (Omni International, Kennesaw, GA, USA). Plasma was used as a surrogate matrix when preparing calibration curves for brain and brain tumor homogenates and CSF as well as for the PBS fraction after sample dialysis. To minimize matrix differences, all plasma samples were spiked with PBS, while all non-plasma samples were spiked with plasma. Extraction of the analyte and IS was facilitated by protein precipitation using methanol-containing IS precipitation solution. Samples (70 μL) spiked with PBS or plasma were precipitated using 400 μL of IS precipitation solution. After centrifugation at 12,000 r/min for 10 min at 4 °C, the supernatant was transferred for LC-MS/MS analysis.
The validated bioanalytical method was employed to investigate analytes pharmacokinetics in the plasma, brain tumor, and CSF in GBM patients (ClinicalTrials.gov identifier: NCT04391595). The protocol was reviewed and approved by the Institutional Review Board of the Barrow Neurological Institute, St. Joseph's Hospital and Medical Center (Phoenix, AZ, USA). All patients enrolled in the trial provided written informed consent. […] Blood, CSF, and GBM tissue (including gadolinium-contrast enhancing and non-enhancing regions) samples were obtained intra-operatively from each patient on the […] on the planned operation day. Blood was centrifuged at 4 °C and 3,000 r/min for 10 min; plasma was subsequently collected. Brain tumors were resected 7–9 h after the last dose was administered. Once resected, the tissue samples were rinsed with PBS, paper dried, and freshly frozen in liquid nitrogen. The samples were then stored at −80 °C in a freezer for later analysis.

[3] = Analyte stability in human plasma; format: physicochemical; conditions: for Freeze-thaw stability, Accuracy / Freeze-thaw stability, Mean concentration / Freeze-thaw stability, Difference: 3 cycles; for Freeze-thaw stability, Difference / Benchtop stability, Difference / Processed sample stability, Difference / Autosampler stability (5 °C), Difference / Long-term stability (−20 °C), Difference: vs freshly processed QC; for Benchtop stability, Accuracy / Benchtop stability, Mean concentration / Benchtop stability, Difference: 19 h; for Processed sample stability, Accuracy / Processed sample stability, Mean concentration / Processed sample stability, Difference: 23 h; for Autosampler stability (5 °C), Accuracy / Autosampler stability (5 °C), Mean concentration / Autosampler stability (5 °C), Difference: 112 h; for Long-term stability (−20 °C), Accuracy / Long-term stability (−20 °C), Mean concentration / Long-term stability (−20 °C), Difference: 27 days
Protocol: as §1

[4] = Equilibrium dialysis, fraction unbound in plasma; format: in vitro ADME, human; conditions: pH 7.4, 16 h equilibrium dialysis
Protocol: (§2) Equilibrium dialysis was employed to measure the fraction unbound of analytes in plasma, brain, and brain tumor tissue homogenates using 96-well DispoEquilibrium Dialyzer plates with a 10 kDa cut-off regenerated cellulose membrane. Dialysis was performed using 180 μL of human plasma or tissue homogenate against an equal volume of PBS (pH 7.4) in a dual-plate rotator (Harvard Apparatus, Holliston, MA, USA). Equilibrium time was initially optimized by analyzing samples after 2, 4, 6, 8, 16, and 24 h of dialysis at concentrations of 20 and 200 nM in human plasma and brain homogenate. The dialysates were collected and processed as described in Sections 2.3.2 and 2.3.3. The recovery of analytes was calculated as the ratio of analyte concentration after dialysis (sum of concentrations found in PBS and matrix fractions) to the total concentration to ensure the reliability and reproducibility of the assay. The experiments were repeated at least three times, and each sample in triplicate and average fraction unbound values were determined.
(§3) The fraction unbound in plasma (fu, plasma) and tissue homogenate (fu, hom) was evaluated as the analyte concentration ratio of post-dialysis PBS (cu) to post-dialysis plasma (cp, Eq. (1)) or homogenate (chom, Eq. (2)).(1) fu,plasma =cu/cp (2) fu,hom =cu/chom
Unbound drug levels in the actual plasma and brain tumor tissue were measured using dialysis for 16 h to reach equilibrium. The mean of fraction unbound values determined in five patient samples was calculated.

[5] = Equilibrium dialysis, fraction unbound in brain homogenate; format: in vitro ADME, human
Protocol: as §2, §3
The fraction unbound in the actual tissue (fu, tissue) was obtained by incorporating the unbound fraction in the tissue homogenate (fu, hom) and the dilution factor (Df) into Eq. (3).(3) fu,tissue = fu,hom/[Df - (Df - 1)fu,hom]

Cc1nc2c(F)cc(-c3nc(Nc4ccc(CN5CCNCC5)cn4)ncc3F)cc2n1C(C)C [M2]
Freeze-thaw stability, Accuracy ([1]; HQC 400.0 nM): 101.3% | Freeze-thaw stability, Mean concentration ([1]; HQC 400.0 nM): 405.1 nM | Freeze-thaw stability, Difference ([1]; HQC 400.0 nM): −6.8% | Freeze-thaw stability, Accuracy ([1]; LQC 0.6 nM): 98.3% | Freeze-thaw stability, Mean concentration ([1]; LQC 0.6 nM): 0.590 nM | Freeze-thaw stability, Difference ([1]; LQC 0.6 nM): −9.4% | Benchtop stability, Accuracy ([1]; HQC 400.0 nM): 97.0% | Benchtop stability, Mean concentration ([1]; HQC 400.0 nM): 388.2 nM | Benchtop stability, Difference ([1]; HQC 400.0 nM): −5.9% | Benchtop stability, Accuracy ([1]; LQC 0.6 nM): 102.4% | Benchtop stability, Mean concentration ([1]; LQC 0.6 nM): 0.614 nM | Benchtop stability, Difference ([1]; LQC 0.6 nM): 6.9% | Processed sample stability, Accuracy ([1]; HQC 400.0 nM): 100.2% | Processed sample stability, Mean concentration ([1]; HQC 400.0 nM): 400.9 nM | Processed sample stability, Difference ([1]; HQC 400.0 nM): −2.8% | Processed sample stability, Accuracy ([1]; LQC 0.6 nM): 105.4% | Processed sample stability, Mean concentration ([1]; LQC 0.6 nM): 0.632 nM | Processed sample stability, Difference ([1]; LQC 0.6 nM): 10.0% | Autosampler stability (5 °C), Accuracy ([1]; HQC 400.0 nM): 105.4% | Autosampler stability (5 °C), Mean concentration ([1]; HQC 400.0 nM): 421.6 nM | Autosampler stability (5 °C), Difference ([1]; HQC 400.0 nM): 6.2% | Autosampler stability (5 °C), Accuracy ([1]; LQC 0.6 nM): 102.4% | Autosampler stability (5 °C), Mean concentration ([1]; LQC 0.6 nM): 0.615 nM | Autosampler stability (5 °C), Difference ([1]; LQC 0.6 nM): 13.5% | Long-term stability (−20 °C), Accuracy ([1]; HQC 400.0 nM): 103.4% | Long-term stability (−20 °C), Mean concentration ([1]; HQC 400.0 nM): 413.6 nM | Long-term stability (−20 °C), Difference ([1]; HQC 400.0 nM): −4.8% | Long-term stability (−20 °C), Accuracy ([1]; LQC 0.6 nM): 98.3% | Long-term stability (−20 °C), Mean concentration ([1]; LQC 0.6 nM): 0.590 nM | Long-term stability (−20 °C), Difference ([1]; LQC 0.6 nM): −9.5% | concentration at 6 day (intra-operative) ([2]; read-out: Level in CSF (range)): 1.8 to 30.4 nM | concentration at 6 day (intra-operative) ([2]; read-out: Median level in CSF): 11.7 nM | Freeze-thaw stability, Accuracy ([3]; HQC 400.0 nM): 106% | Freeze-thaw stability, Mean concentration ([3]; HQC 400.0 nM): 424.2 nM | Freeze-thaw stability, Difference ([3]; HQC 400.0 nM): 5.8% | Freeze-thaw stability, Accuracy ([3]; LQC 0.6 nM): 105.3% | Freeze-thaw stability, Mean concentration ([3]; LQC 0.6 nM): 0.632 nM | Freeze-thaw stability, Difference ([3]; LQC 0.6 nM): 5.8% | Benchtop stability, Accuracy ([3]; HQC 400.0 nM): 103.8% | Benchtop stability, Mean concentration ([3]; HQC 400.0 nM): 415.0 nM | Benchtop stability, Difference ([3]; HQC 400.0 nM): 1.1% | Benchtop stability, Accuracy ([3]; LQC 0.6 nM): 92.2% | Benchtop stability, Mean concentration ([3]; LQC 0.6 nM): 0.553 nM | Benchtop stability, Difference ([3]; LQC 0.6 nM): −1.7% | Processed sample stability, Accuracy ([3]; HQC 400.0 nM): 100.6% | Processed sample stability, Mean concentration ([3]; HQC 400.0 nM): 402.2 nM | Processed sample stability, Difference ([3]; HQC 400.0 nM): 0.7% | Processed sample stability, Accuracy ([3]; LQC 0.6 nM): 95.5% | Processed sample stability, Mean concentration ([3]; LQC 0.6 nM): 0.573 nM | Processed sample stability, Difference ([3]; LQC 0.6 nM): 3.6% | Autosampler stability (5 °C), Accuracy ([3]; HQC 400.0 nM): 97.7% | Autosampler stability (5 °C), Mean concentration ([3]; HQC 400.0 nM): 390.9 nM | Autosampler stability (5 °C), Difference ([3]; HQC 400.0 nM): −0.2% | Autosampler stability (5 °C), Accuracy ([3]; LQC 0.6 nM): 96.8% | Autosampler stability (5 °C), Mean concentration ([3]; LQC 0.6 nM): 0.581 nM | Autosampler stability (5 °C), Difference ([3]; LQC 0.6 nM): 4.8% | Long-term stability (−20 °C), Accuracy ([3]; HQC 400.0 nM): 109.2% | Long-term stability (−20 °C), Mean concentration ([3]; HQC 400.0 nM): 437.0 nM | Long-term stability (−20 °C), Difference ([3]; HQC 400.0 nM): 5.6% | Long-term stability (−20 °C), Accuracy ([3]; LQC 0.6 nM): 99.9% | Long-term stability (−20 °C), Mean concentration ([3]; LQC 0.6 nM): 0.6 nM | Long-term stability (−20 °C), Difference ([3]; LQC 0.6 nM): −3.1% | fraction unbound at 16 h ([4]; human, plasma of five GBM patients, read-out: Fraction unbound (fu), Plasma (patients)): 0.045 | fraction unbound at 16 h ([4]; pooled human plasma spiked at 20 and 200 nM, read-out: Fraction unbound (fu), Plasma (pooled)): 0.052 | fraction unbound at 16 h ([5]; pH 7.4, human brain homogenate spiked at 20 and 200 nM, 16 h equilibrium dialysis, read-out: Fraction unbound (fu), Brain): 0.008 | Plasma protein binding compared to binding to brain tissue components (ratio) ([5]; spiked pooled human plasma vs human brain homogenate): at least 6.5 fold
